Like-named read-outs stand apart in the source and are kept apart here.
Tested on: Glioma-initiating cell E6R
Test: Cell growth test (MTT) on GICR strain E6R
Format: cell-based
Conditions: Homo sapiens, 72 h
Method: GICR strain: Cell growth test was performed using E6R (Stem Cells. 2016 August; 34(8):2016-25.).
Cell culture solutions were obtained by mixing a medium prepared by adding various compounds, bFGF (Peprotech, 100-18B) and EGF (Peprotech, 100-15) to DMEM/Ham's F-12 medium (SIGMA, D8062) and a medium prepared by adding FCS (Hyclone, SH30910.03) to DMEM medium (Nacalai tesque, 08458-45) to a concentration of 10% for use.
Each compound adjusted to a predetermined concentration was dispensed into a 96-well plate (Falcon, 353072) at 80 μL/well, and E6 cells and E6R cells were seeded on the 96-well plate at 1000 cells/80 μL/well. After 3 days, 10 μL of an MTT reagent (DOJINDO, 341-01823) was added, the cells were incubated at 37° C. for 3 hours, the culture solution was removed, and 100 μL of DMSO was added. The absorbance at 570 nm was measured using Bio-Rad iMark (Bio-Rad, 168-1130JA). The growth inhibition rate at each test compound concentration was calculated by the following formula using the absorbance as an index of the viable cell count.
The growth inhibition rate at each compound concentration was determined, and the 50% growth inhibition concentration GI50 (μmol/L)] was calculated using XLfit. Growth inhibition rate (%)=(Amount of luminescence from wells supplemented with test compound)/(Amount of luminescence from wells supplemented with DMSO)×100
GIC and GICR strain: Cell growth test was performed using E6, E6R, E16, and E16R (Stem Cells. 2016 August; 34(8): 2016-25.).

[1] = MTT after 3 days, read-out: ER6 GI50
[2] = class of ER6 GI50, MTT after 3 days, read-out: Evaluation

GI50 [1] | GI50 [2] | Structure (SMILES)
2.23 nM | < 1000 nM | Cn1ccc2cc(Nc3ncc(C4CC4)cc3C(=O)O)cc(-c3cccc(Cl)c3)c21 [Compound 6, 2-((7-(3-chlorophenyl)-1-methyl-1H-indole-5-yl)amino)-5-cyclopropylnicotinic acid]
30.6 nM | < 1000 nM | O=C(O)c1cc(C2CC2)ccc1Nc1ccc2c(cnn2Cc2ccccc2)c1 [Compound 1, 2-((1-benzyl-1h-indazole-5-yl)amino)-5-cyclopropylbenzoate]
4.77 nM | < 1000 nM | Cn1ccc2cc(Nc3ncc(C4CC4)cc3C(=O)O)cc(-c3ccccc3)c21 [Compound 11, 5-cyclopropyl-2-((1-methyl-7-phenyl-1H-indole-5-yl)amino)nicotinic acid]
< 0.14 nM | < 1000 nM | Cn1ccc2cc(Nc3ncc(C4CC4)cc3C(=O)O)cc(-c3ccc(OC(F)(F)F)cc3)c21 [Compound 7, 5-cyclopropyl-2-((1-methyl-7-(4-(trifluoromethoxy)phenyl)-1H-indole-5-yl)amino)nicotinic acid]
11.4 nM | < 1000 nM | O=C(O)c1cc(C2CC2)cnc1Nc1cc2ccn(Cc3ccccc3)c2cc1F [Compound 13, 2-((1-benzyl-6-fluoro-1H-indole-5-yl)amino)-5-cyclopropylnicotinic acid]
< 0.14 nM | < 1000 nM | Cn1ccc2cc(Nc3ncc(C4CC4)cc3C(=O)O)cc(-c3ccc(C(F)(F)F)cc3)c21 [Compound 5]
1.69 nM | < 1000 nM | Cn1ccc2cc(Nc3ncc(C4CC4)cc3C(=O)O)cc(-c3ccccc3F)c21 [Compound 4, 5-cyclopropyl-2-((7-(2-fluorophenyl)-1-methyl-1H-indole-5-yl)amino)nicotinic acid]
5.8 nM | < 1000 nM | O=C(O)c1cc(C2CC2)ccc1Nc1cccc2c1ccc(=O)n2-c1ccccc1 [Compound 19, 5-cyclopropyl-2-((2-oxo-1-phenyl-1,2-dihydroquinoline-5-yl)amino)benzoic acid]
0.36 nM | < 1000 nM | Cn1ccc2cc(Nc3ncc(C4CC4)cc3C(=O)O)cc(C3=CCCCC3)c21 [Compound 20]
4.35 nM | < 1000 nM | O=C(O)c1cc(C2CC2)cnc1Nc1cccc2c(-c3ccccc3)cccc12 [Compound 9, 5-cyclopropyl-2-((5-phenylnaphthalene-1-yl)amino)nicotinic acid]
3.19 nM | < 1000 nM | O=C(O)c1cc(C2CC2)cnc1Nc1ccc2c(-c3ccccc3)nccc2c1 [Compound 16, 5-cyclopropyl-2-((1-phenylisoquinoline-6-yl)amino)nicotinic acid]
23.9 nM | < 1000 nM | O=C(O)c1cc(C2CC2)cnc1Nc1ccc2c(ccn2-c2cccc(F)c2)c1 [Compound 12, 5-cyclopropyl-2-((1-(3-fluorophenyl)-1H-indole-5-yl)amino)nicotinic acid]
25.9 nM | < 1000 nM | Cn1ccc2cc(Nc3ncc(C4CC4)cc3C(=O)O)cc(C3=CCOCC3)c21 [Compound 15, 5-cyclopropyl-2-((7-(3,6-dihydro-2H-pyran-4-yl)-1-methyl-1H-indole-5-yl)amino)nicotinic acid]
2.96 nM | < 1000 nM | Cn1ccc2cc(Nc3ncc(C4CC4)cc3C(=O)O)cc(-c3ccc(C#N)cc3)c21 [Compound 17, 2-((7-(4-cyanophenyl)-1-methyl-1H-indole-5-yl)amino)-5-cyclopropylnicotinic acid]
82.6 nM | < 1000 nM | O=C(O)c1cc(C2CC2)cnc1Nc1ccc2c(ccn2CC2CCCCC2)c1 [Compound 2, 2-((1-(cyclohexylmethyl)-1H-indole-5-yl)amino)-5-cyclopropylnicotinic acid]
1.77 nM | < 1000 nM | O=C(O)c1cc(C2CC2)cnc1Nc1ccc2c(-c3ccccc3)cccc2c1 [Compound 10, 5-cyclopropyl-2-((5-phenylnaphthalene-2-yl)amino)nicotinic acid]
